Literature values as cited in patent publication US6399592B1, “Bishphosphonate/estrogen synergistic therapy for treating and preventing bone loss” (Merck & Co., Inc., priority 1992, dated 2002).

What was measured:
bone mineralization = conditions: rats; long term
[1] = test system: bone loss in ovaricetomized rats; conditions: in combination with estrogen

Row | Structure (SMILES) | effects on bone mineralization (bone mineralization) | effect on bone loss [1]
1 | CC(O)(P(=O)([O-])O)P(=O)([O-])O.[Na+].[Na+] [etidronate, (1-hydroxyethylidene)bisphosphonic acid, disodium salt] | long term adverse effects on bone mineralization | –
2 | O=P([O-])(O)C(O)(Cc1cccnc1)P(=O)(O)O.[Na+] [risendronate, sodium trihydrogen [1-hydroxy-2-(3-pyridinyl)ethylidene]bisphosphonate] | – | positive effect on bone loss
